One block for each molecule: values may come before it. Activity calls are given as the source filed them. The calls are words filed in the database; no cut-off is given here.
Experiments:
U-937 [1] = experiment: Antiproliferative activity against human procaspase-3 over-expressing U937 cells after 24 hrs by CCK-8 assay; type: functional, cell-based; details: U-937, 24 h
MCF7 = experiment: Antiproliferative activity against human MCF7 cells after 24 hrs by CCK-8 assay; type: functional, cell-based; details: MCF7, 24 h
[2] = Selectivity ratio of IC50 for human MCF7 cells to IC50 for human procaspase-3 over-expressing U937 cells; type: functional
U-937 [3] = experiment: Induction of apoptosis in human U937 cells assessed as caspase-3 activity at 30 uM using Ac-DEVD-AFC as substrate preincubated for 16 hrs followed by substrate addition and measured after 60 mins by fluorescence assay (reference value: 7+/- 1%); type: functional
[4] = Intrinsic clearance in rat liver microsomes in presence of NADPH by LC-MS analysis; type: ADME, Microsome; details: read-out: CLH
[5] = Half life in rat liver microsomes in presence of NADPH by LC-MS analysis; type: ADME, Microsome
[6] = Intrinsic clearance in human liver microsomes in presence of NADPH by LC-MS analysis; type: ADME, Microsome; details: read-out: CLH
[7] = Half life in mouse liver microsomes in presence of NADPH by LC-MS analysis; type: ADME, Microsome
[8] = Half life in human liver microsomes in presence of NADPH by LC-MS analysis; type: ADME, Microsome
[9] = Intrinsic clearance in mouse liver microsomes in presence of NADPH by LC-MS analysis; type: ADME, Microsome; details: read-out: CLH
U-937 [10] = experiment: Induction of apoptosis in human U937 cells assessed as late apoptotic cells at 6.6 uM after 24 hrs by Annexin V-FITC/propidium iodide staining-based flow cytometric analysis (reference value: 3.27%); type: functional
U-937 [11] = experiment: Induction of apoptosis in human U937 cells assessed as late apoptotic cells at 3.3 uM after 24 hrs by Annexin V-FITC/propidium iodide staining-based flow cytometric analysis (reference value: 3.27%); type: functional
U-937 [12] = experiment: Induction of apoptosis in human U937 cells assessed as early apoptotic cells at 6.6 uM after 48 hrs by Annexin V-FITC/propidium iodide staining-based flow cytometric analysis (reference value: 6.16%); type: functional
U-937 [13] = experiment: Induction of apoptosis in human U937 cells assessed as late apoptotic cells at 3.3 uM after 48 hrs by Annexin V-FITC/propidium iodide staining-based flow cytometric analysis (reference value: 3.89%); type: functional
Danio rerio [14] = organism: Danio rerio; experiment: Induction of apoptosis in zebrafish AB embryos assessed as increase in bax mRNA expression at 40 to 60 uM after 24 hrs post fertilization by RT-PCR analysis; type: functional, organism-based
U-937 [15] = experiment: Induction of apoptosis in human U937 cells assessed as early apoptotic cells at 3.3 uM after 24 hrs by Annexin V-FITC/propidium iodide staining-based flow cytometric analysis (reference value: 4.88%); type: functional
Danio rerio [16] = organism: Danio rerio; experiment: Induction of apoptosis in zebrafish AB embryos assessed as accumulation of dying cells in head at 40 to 60 uM after 24 hrs post fertilization by acridine orange staining-based fluorescence microscopic analysis; type: functional, organism-based
U-937 [17] = experiment: Induction of apoptosis in human U937 cells assessed as late apoptotic cells at 6.6 uM after 48 hrs by Annexin V-FITC/propidium iodide staining-based flow cytometric analysis (reference value: 3.89%); type: functional
[18] = Toxicity in zebrafish AB embryos assessed as induction of mortality at 40 uM after 72 hrs post fertilization by stereo microscopic analysis; parameters: species or system Danio rerio; details: in vivo
Danio rerio [19] = organism: Danio rerio; experiment: Induction of apoptosis in zebrafish AB embryos assessed as accumulation of dying cells in cranial neural crest at 40 to 60 uM after 24 hrs post fertilization by acridine orange staining-based fluorescence microscopic analysis; type: functional, organism-based
U-937 [20] = experiment: Induction of apoptosis in human U937 cells assessed as early apoptotic cells at 6.6 uM after 24 hrs by Annexin V-FITC/propidium iodide staining-based flow cytometric analysis (reference value: 4.88%); type: functional
U-937 [21] = experiment: Induction of apoptosis in human U937 cells assessed as early apoptotic cells at 3.3 uM after 48 hrs by Annexin V-FITC/propidium iodide staining-based flow cytometric analysis (reference value: 6.16%); type: functional
[22] = Toxicity in zebrafish AB embryos at 40 uM after 48 hrs post fertilization by stereo microscopic analysis; parameters: species or system Danio rerio; details: in vivo
[23] = Toxicity in zebrafish AB embryos at 5 to 20 uM measured at 24 to 72 hrs post fertilization by stereo microscopic analysis; parameters: species or system Danio rerio; details: in vivo
Caspase-3 (Homo sapiens) = target: T1, Caspase-3 (Homo sapiens) (UniProt P42574); experiment: Activation of procaspase-3 (unknown origin) at 10 uM using Ac-DEVD-AFC as substrate preincubated for 4 hrs followed by substrate addition and measured after 5 mins by fluorescence assay relative to control
T1 sequence (whole entry): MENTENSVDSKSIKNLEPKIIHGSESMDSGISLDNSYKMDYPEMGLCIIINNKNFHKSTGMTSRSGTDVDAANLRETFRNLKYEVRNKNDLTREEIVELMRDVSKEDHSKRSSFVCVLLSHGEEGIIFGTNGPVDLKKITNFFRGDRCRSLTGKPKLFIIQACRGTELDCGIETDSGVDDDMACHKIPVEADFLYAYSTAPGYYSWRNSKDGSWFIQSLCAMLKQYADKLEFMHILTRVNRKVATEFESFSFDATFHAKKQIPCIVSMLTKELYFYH

U-937 [24] = experiment: Induction of apoptosis in human U937 cells assessed as late apoptotic cells at 2.6 uM after 48 hrs by Annexin V-FITC/propidium iodide staining-based flow cytometric analysis (reference value: 3.89%); type: functional
U-937 [25] = experiment: Induction of apoptosis in human U937 cells assessed as late apoptotic cells at 5.2 uM after 48 hrs by Annexin V-FITC/propidium iodide staining-based flow cytometric analysis (reference value: 3.89%); type: functional
U-937 [26] = experiment: Induction of apoptosis in human U937 cells assessed as early apoptotic cells at 5.2 uM after 48 hrs by Annexin V-FITC/propidium iodide staining-based flow cytometric analysis (reference value: 6.16%); type: functional
U-937 [27] = experiment: Induction of apoptosis in human U937 cells assessed as early apoptotic cells at 2.6 uM after 48 hrs by Annexin V-FITC/propidium iodide staining-based flow cytometric analysis (reference value: 6.16%); type: functional
U-937 [28] = experiment: Induction of apoptosis in human U937 cells assessed as early apoptotic cells at 2.6 uM after 24 hrs by Annexin V-FITC/propidium iodide staining-based flow cytometric analysis (reference value: 4.88%); type: functional
U-937 [29] = experiment: Induction of apoptosis in human U937 cells assessed as late apoptotic cells at 2.6 uM after 24 hrs by Annexin V-FITC/propidium iodide staining-based flow cytometric analysis (reference value: 3.27%); type: functional
U-937 [30] = experiment: Induction of apoptosis in human U937 cells assessed as early apoptotic cells at 5.2 uM after 24 hrs by Annexin V-FITC/propidium iodide staining-based flow cytometric analysis (reference value: 4.88%); type: functional
U-937 [31] = experiment: Induction of apoptosis in human U937 cells assessed as late apoptotic cells at 5.2 uM after 24 hrs by Annexin V-FITC/propidium iodide staining-based flow cytometric analysis (reference value: 3.27%); type: functional

SMILES: CN(C)Cc1ccc2nc(NC(=O)N/N=C/c3ccccn3)sc2c1
Ratio IC50 [2]: 1.6
IC50 (U-937 [1]): 23.2 µM
IC50 (MCF7): > 40 µM

SMILES: CN(C)Cc1ccc(NC(=O)NN=C(c2ccccn2)c2ccccn2)cc1
IC50 (U-937 [1]): > 40 µM
IC50 (MCF7): > 40 µM

SMILES: O=C(c1ccc(F)cc1)C1CCN(CCn2c(=O)[nH]c3ccccc3c2=O)CC1 [KETANSERIN]
CLint scaled [4]: 10.4 L/h/kg
half-life [5]: 14.4 min
CLint scaled [6]: 2.89 L/h/kg
half-life [7]: 20.5 min
half-life [8]: 36.1 min
CLint scaled [9]: 16 L/h/kg

SMILES: CC1CCN(Cc2ccc3nc(NC(=O)NN=C(c4ccccn4)c4ccccn4)sc3c2)CC1
Activity (U-937 [10]): 8.5%
Activity (U-937 [11]): 6.75%
Ratio IC50 [2]: 6
Activity (U-937 [12]): 26.89%
CLint scaled [4]: 2.02 L/h/kg
Activity (U-937 [13]): 9.86%
Activity (Danio rerio [14]): Active
Activity (U-937 [15]): 15.85%
IC50 (U-937 [1]): 6.6 µM
half-life [5]: 73.9 min
CLint scaled [6]: 1.32 L/h/kg
Activity (Danio rerio [16]): Active
IC50 (MCF7): > 40 µM
Activity (U-937 [3]): 114%
Activity (U-937 [17]): 17.66%
Activity [18]: Toxic
Activity (Danio rerio [19]): Active
Activity (U-937 [20]): 19.27%
Activity (U-937 [21]): 20.55%
Activity [22]: Toxic
half-life [7]: 16.7 min
half-life [8]: 79.1 min
Activity [23]: Non-Toxic
Activity (Caspase-3 (Homo sapiens)): 92.1%
CLint scaled [9]: 19.6 L/h/kg

SMILES: C/C(=N\NC(=O)Nc1nc2ccc(CN3CCC(C)CC3)cc2s1)c1ccccn1
Activity (U-937 [24]): 9.17%
Activity (U-937 [25]): 18.7%
Ratio IC50 [2]: 2.3
Activity (U-937 [26]): 28.06%
CLint scaled [4]: 1.56 L/h/kg
Activity (Danio rerio [14]): Active
Activity (U-937 [27]): 19.59%
IC50 (U-937 [1]): 5.2 µM
half-life [5]: 95.5 min
CLint scaled [6]: 1.34 L/h/kg
Activity (Danio rerio [16]): Active
IC50 (MCF7): 12.4 µM
Activity (U-937 [3]): 99%
Activity (U-937 [28]): 16.16%
Activity [18]: Toxic
Activity (Danio rerio [19]): Active
Activity (U-937 [29]): 6.3%
half-life [7]: 53.6 min
half-life [8]: 77.9 min
Activity [23]: Non-Toxic
Activity (U-937 [30]): 19.79%
Activity (U-937 [31]): 8.15%
Activity (Caspase-3 (Homo sapiens)): 77.8%
CLint scaled [9]: 6.11 L/h/kg

SMILES: CCN(CC)Cc1ccc(NC(=O)NN=C(c2ccccn2)c2ccccn2)cc1
IC50 (U-937 [1]): > 40 µM
IC50 (MCF7): > 40 µM

Now from value to molecule, other results behind:

IC50 (U-937 [1]): > 40 µM
IC50 (MCF7): > 40 µM
SMILES: C/C(=N\NC(=O)Nc1ccc(CN2CCC(C)CC2)cc1)c1cnccn1

IC50 (U-937 [1]): > 40 µM
IC50 (MCF7): 12.3 µM
SMILES: CCN(CC)Cc1ccc2nc(NC(=O)N/N=C(\C)c3ccc(F)cc3)sc2c1
Ratio IC50 [2]: <1
Activity (U-937 [3]): 40%

IC50 (U-937 [1]): 7.8 µM
IC50 (MCF7): > 40 µM
SMILES: CN(C)Cc1ccc2nc(NC(=O)NN=C(c3ccccn3)c3ccccn3)sc2c1
Ratio IC50 [2]: 5.1
Activity (U-937 [3]): 104%

IC50 (U-937 [1]): 24.8 µM
IC50 (MCF7): > 40 µM
SMILES: CCN(CC)Cc1ccc2nc(NC(=O)N/N=C/c3ccccn3)sc2c1
Ratio IC50 [2]: 1.6

IC50 (U-937 [1]): > 40 µM
IC50 (MCF7): > 40 µM
SMILES: CN(C)Cc1ccc(NC(=O)N/N=C/c2ccccn2)cc1

IC50 (U-937 [1]): > 40 µM
IC50 (MCF7): 11.8 µM
SMILES: C/C(=N\NC(=O)Nc1nc2ccc(CN3CCC(C)CC3)cc2s1)c1cnccn1
Ratio IC50 [2]: <1

IC50 (U-937 [1]): > 25 µM
IC50 (MCF7): 12.1 µM
SMILES: CN(C)Cc1ccc(NC(=O)NN=C(c2ccccc2)c2ccccc2)cc1
Ratio IC50 [2]: <1
Activity (U-937 [3]): 28%

IC50 (U-937 [1]): > 40 µM
IC50 (MCF7): > 40 µM
SMILES: CC1CCN(Cc2ccc(NC(=O)N/N=C/c3ccccn3)cc2)CC1

— ChEMBL document CHEMBL4480380, “Identification and biological evaluation of novel benzothiazole derivatives bearing a pyridine-semicarbazone moiety as apoptosis inducers via activation of procaspase-3 to caspase-3” (Medchemcomm, 2019)
